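In this assay, cells in 96-well plates receive the compound at five concentrations for 48 hours. Endpoints are linearly interpolated between the surrounding concentrations. The concentration for full growth arrest is given as TGI.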
Legend:
Assay in all cases: DTP human tumour cell line panel, 48 h
DU-145 prostate = test system: DU-145 prostate
LOX IMVI melanoma = test system: LOX IMVI melanoma
NCI-H460 lung = test system: NCI-H460 lung
A498 renal = test system: A498 renal
SNB-19 CNS = test system: SNB-19 CNS
MOLT-4 leukemia = test system: MOLT-4 leukemia
HOP-62 NSCLC = test system: HOP-62 NSCLC
MDA-MB-231 breast = test system: MDA-MB-231 breast
HOP-92 NSCLC = test system: HOP-92 NSCLC
CAKI-1 renal = test system: CAKI-1 renal
ACHN renal = test system: ACHN renal
RPMI-8226 leukemia = test system: RPMI-8226 leukemia
A549 NSCLC = test system: A549 NSCLC
K-562 leukemia = test system: K-562 leukemia
NCI-H23 lung = test system: NCI-H23 lung
SNB-75 CNS = test system: SNB-75 CNS
RXF 393 renal = test system: RXF 393 renal
TK-10 renal = test system: TK-10 renal

## C=C[C@H]1CC[C@H]2[C@@H]3CC=C4C[C@@H](OC5OCC(O)C(O)C5O)CC[C@]4(C)[C@H]3CC[C@]12C (stereo partly drawn)
DU-145 prostate
  TGI: > 100 µM
LOX IMVI melanoma
  TGI: 26.7 µM
NCI-H460 lung
  TGI: 28.4 µM
A498 renal
  TGI: 21 µM
SNB-19 CNS
  TGI: 65.9 µM
MOLT-4 leukemia
  TGI: > 100 µM
HOP-62 NSCLC
  TGI: > 100 µM
MDA-MB-231 breast
  TGI: 39.6 µM
HOP-92 NSCLC
  TGI: 16.8 µM
CAKI-1 renal
  TGI: 23.8 µM
ACHN renal
  TGI: 10.8 µM
RPMI-8226 leukemia
  TGI: > 100 µM
A549 NSCLC
  TGI: 27.5 µM
K-562 leukemia
  TGI: > 100 µM
NCI-H23 lung
  TGI: 66.3 µM

## C(=Nc1ccc(-c2cc(-c3ccccc3)nc3ccc4ccccc4c23)cc1)c1ccccc1
DU-145 prostate
  TGI: 68.6 µM
LOX IMVI melanoma
  TGI: > 100 µM
NCI-H460 lung
  TGI: > 100 µM
A498 renal
  TGI: 70.3 µM
SNB-19 CNS
  TGI: 58 µM
MOLT-4 leukemia
  TGI: > 100 µM
HOP-62 NSCLC
  TGI: 56.1 µM
SNB-75 CNS
  TGI: > 100 µM
MDA-MB-231 breast
  TGI: > 100 µM
RXF 393 renal
  TGI: 47.9 µM
CAKI-1 renal
  TGI: 75.4 µM
ACHN renal
  TGI: > 100 µM
RPMI-8226 leukemia
  TGI: > 100 µM
A549 NSCLC
  TGI: 62.2 µM
K-562 leukemia
  TGI: > 100 µM
NCI-H23 lung
  TGI: > 100 µM
TK-10 renal
  TGI: 74.6 µM

## Cc1nn(C(=O)c2ccncc2)c2c1C(c1ccc(Cl)cc1)SC(N)=N2 (stereo not drawn)
DU-145 prostate
  TGI: > 10 µM
LOX IMVI melanoma
  TGI: > 10 µM
NCI-H460 lung
  TGI: > 10 µM
SNB-19 CNS
  TGI: > 10 µM
MOLT-4 leukemia
  TGI: > 10 µM
HOP-62 NSCLC
  TGI: > 10 µM
SNB-75 CNS
  TGI: > 10 µM
MDA-MB-231 breast
  TGI: > 10 µM
RXF 393 renal
  TGI: > 10 µM
HOP-92 NSCLC
  TGI: > 10 µM
CAKI-1 renal
  TGI: > 10 µM
ACHN renal
  TGI: > 10 µM
RPMI-8226 leukemia
  TGI: > 10 µM
A549 NSCLC
  TGI: > 10 µM
K-562 leukemia
  TGI: > 10 µM
NCI-H23 lung
  TGI: > 10 µM
TK-10 renal
  TGI: > 10 µM

## CN1CCN(c2cc3c(cc2F)c(=O)c(C(=O)O)cn3C2CC2)CC1CC#N (stereo not drawn)
DU-145 prostate
  TGI: > 100 µM
LOX IMVI melanoma
  TGI: > 100 µM
NCI-H460 lung
  TGI: > 100 µM
A498 renal
  TGI: > 100 µM
SNB-19 CNS
  TGI: > 100 µM
MOLT-4 leukemia
  TGI: > 100 µM
HOP-62 NSCLC
  TGI: > 100 µM
SNB-75 CNS
  TGI: > 100 µM
MDA-MB-231 breast
  TGI: > 100 µM
RXF 393 renal
  TGI: > 100 µM
CAKI-1 renal
  TGI: > 100 µM
ACHN renal
  TGI: > 100 µM
RPMI-8226 leukemia
  TGI: > 100 µM
A549 NSCLC
  TGI: > 100 µM
K-562 leukemia
  TGI: > 100 µM
NCI-H23 lung
  TGI: > 100 µM
TK-10 renal
  TGI: > 100 µM

## CCCCn1cnnc1NS(=O)(=O)c1cc(C)c(Cl)cc1SCC(=O)O
DU-145 prostate
  TGI: > 10 µM
LOX IMVI melanoma
  TGI: > 10 µM
NCI-H460 lung
  TGI: > 10 µM
A498 renal
  TGI: > 10 µM
SNB-19 CNS
  TGI: > 10 µM
MOLT-4 leukemia
  TGI: > 10 µM
HOP-62 NSCLC
  TGI: > 10 µM
SNB-75 CNS
  TGI: > 10 µM
MDA-MB-231 breast
  TGI: > 10 µM
RXF 393 renal
  TGI: > 10 µM
CAKI-1 renal
  TGI: > 10 µM
ACHN renal
  TGI: > 10 µM
RPMI-8226 leukemia
  TGI: > 10 µM
A549 NSCLC
  TGI: > 10 µM
K-562 leukemia
  TGI: > 10 µM
NCI-H23 lung
  TGI: > 10 µM
TK-10 renal
  TGI: > 10 µM

## COc1cc(C[C@H]2C(=O)OC[C@@H]2Cc2ccc(OC)c(OC)c2)cc(OC)c1
DU-145 prostate
  TGI: > 100 µM
LOX IMVI melanoma
  TGI: 49.5 µM
NCI-H460 lung
  TGI: > 100 µM
SNB-19 CNS
  TGI: > 100 µM
MOLT-4 leukemia
  TGI: > 100 µM
HOP-62 NSCLC
  TGI: > 100 µM
SNB-75 CNS
  TGI: > 100 µM
MDA-MB-231 breast
  TGI: > 100 µM
RXF 393 renal
  TGI: > 100 µM
HOP-92 NSCLC
  TGI: > 100 µM
CAKI-1 renal
  TGI: > 100 µM
ACHN renal
  TGI: > 100 µM
RPMI-8226 leukemia
  TGI: > 100 µM
A549 NSCLC
  TGI: > 100 µM
K-562 leukemia
  TGI: > 100 µM
NCI-H23 lung
  TGI: > 100 µM
TK-10 renal
  TGI: > 100 µM

## C#CCOCn1ccc(=O)[nH]c1=O
DU-145 prostate
  TGI: > 100 µM
LOX IMVI melanoma
  TGI: > 100 µM
NCI-H460 lung
  TGI: > 100 µM
A498 renal
  TGI: > 100 µM
SNB-19 CNS
  TGI: > 100 µM
MOLT-4 leukemia
  TGI: > 100 µM
HOP-62 NSCLC
  TGI: > 100 µM
SNB-75 CNS
  TGI: > 100 µM
MDA-MB-231 breast
  TGI: > 100 µM
CAKI-1 renal
  TGI: > 100 µM
ACHN renal
  TGI: > 100 µM
RPMI-8226 leukemia
  TGI: > 100 µM
A549 NSCLC
  TGI: > 100 µM
K-562 leukemia
  TGI: > 100 µM
NCI-H23 lung
  TGI: > 100 µM
TK-10 renal
  TGI: > 100 µM

## Cc1cnc(/N=c2\sc(C)cn2-c2ncc(C)s2)s1
DU-145 prostate
  TGI: > 100 µM
LOX IMVI melanoma
  TGI: > 100 µM
NCI-H460 lung
  TGI: > 100 µM
SNB-19 CNS
  TGI: > 100 µM
MOLT-4 leukemia
  TGI: > 100 µM
HOP-62 NSCLC
  TGI: > 100 µM
SNB-75 CNS
  TGI: > 100 µM
MDA-MB-231 breast
  TGI: > 100 µM
RXF 393 renal
  TGI: > 100 µM
HOP-92 NSCLC
  TGI: > 100 µM
ACHN renal
  TGI: > 100 µM
RPMI-8226 leukemia
  TGI: > 100 µM
A549 NSCLC
  TGI: > 100 µM
K-562 leukemia
  TGI: > 100 µM
NCI-H23 lung
  TGI: > 100 µM
TK-10 renal
  TGI: > 100 µM

## CCN(CCCN(CC)C(=O)Nc1ccccc1)C(=O)Nc1ccccc1
DU-145 prostate
  TGI: > 100 µM
LOX IMVI melanoma
  TGI: > 100 µM
NCI-H460 lung
  TGI: > 100 µM
SNB-19 CNS
  TGI: > 100 µM
MOLT-4 leukemia
  TGI: > 100 µM
HOP-62 NSCLC
  TGI: > 100 µM
SNB-75 CNS
  TGI: > 100 µM
MDA-MB-231 breast
  TGI: > 100 µM
RXF 393 renal
  TGI: > 100 µM
HOP-92 NSCLC
  TGI: > 100 µM
CAKI-1 renal
  TGI: > 100 µM
ACHN renal
  TGI: > 100 µM
RPMI-8226 leukemia
  TGI: > 100 µM
A549 NSCLC
  TGI: > 100 µM
K-562 leukemia
  TGI: > 100 µM
NCI-H23 lung
  TGI: > 100 µM
TK-10 renal
  TGI: > 100 µM

## CCN(CC)c1ccc(C2SCC(=O)N2c2ccc(NC(=O)c3ccc(N4C(=O)CSC4c4ccc(N(CC)CC)cc4)cc3)cc2)cc1 (stereo not drawn)
DU-145 prostate
  TGI: > 100 µM
LOX IMVI melanoma
  TGI: > 100 µM
NCI-H460 lung
  TGI: > 100 µM
SNB-19 CNS
  TGI: > 100 µM
MOLT-4 leukemia
  TGI: > 100 µM
HOP-62 NSCLC
  TGI: > 100 µM
SNB-75 CNS
  TGI: > 100 µM
MDA-MB-231 breast
  TGI: > 100 µM
RXF 393 renal
  TGI: > 100 µM
HOP-92 NSCLC
  TGI: > 100 µM
CAKI-1 renal
  TGI: > 100 µM
ACHN renal
  TGI: > 100 µM
A549 NSCLC
  TGI: > 100 µM
K-562 leukemia
  TGI: > 100 µM
NCI-H23 lung
  TGI: > 100 µM
TK-10 renal
  TGI: > 100 µM

## C/C(=N\NC(=S)NC1CCCC1)c1ccccn1
DU-145 prostate
  TGI: > 43 µM
LOX IMVI melanoma
  TGI: 17.8 µM
NCI-H460 lung
  TGI: > 19.9 µM
A498 renal
  TGI: > 28 µM
SNB-19 CNS
  TGI: > 100 µM
HOP-62 NSCLC
  TGI: > 81.9 µM
SNB-75 CNS
  TGI: > 100 µM
MDA-MB-231 breast
  TGI: > 57.2 µM
RXF 393 renal
  TGI: 29.1 µM
CAKI-1 renal
  TGI: > 100 µM
ACHN renal
  TGI: 20.1 µM
RPMI-8226 leukemia
  TGI: 1.99 µM
A549 NSCLC
  TGI: > 53.6 µM
NCI-H23 lung
  TGI: > 100 µM
TK-10 renal
  TGI: > 100 µM

## C=C(C(=O)O)C1CCC(CC/C=C(\C)CC/C=C(\C)CCC=C(C)C)CO1 (stereo not drawn)
DU-145 prostate
  TGI: 42.2 µM
LOX IMVI melanoma
  TGI: 24.6 µM
A498 renal
  TGI: 54.4 µM
SNB-19 CNS
  TGI: 29.1 µM
HOP-62 NSCLC
  TGI: 55.6 µM
SNB-75 CNS
  TGI: > 100 µM
MDA-MB-231 breast
  TGI: > 100 µM
RXF 393 renal
  TGI: 29.6 µM
CAKI-1 renal
  TGI: > 100 µM
ACHN renal
  TGI: > 100 µM
A549 NSCLC
  TGI: 32.4 µM
NCI-H23 lung
  TGI: 40.5 µM
TK-10 renal
  TGI: 81.8 µM

From PubChem BioAssay (NCI)
